For this experiment, the system named is Listeria innocua 33090. In words: colony overlay assay of peptide-secreting E. coli clones (library screening and re-test). The format is cell-based. Also on record: key: higher activity group (H); equal activity group (E); lower activity group (L). The conditions noted are these: library screening; selected colonies pooled by zone size; peptides identified by 454 sequencing, full-length sequences with minimum 20 reads. The method, then: For the in vivo production of AMPs, we have employed an E. coli expression system that relies on periplasmic-expression of recombinant peptides in a host cell that lacks the lpo membrane protein, thus releasing the peptides present in the periplasmic space outside the cells. When the producer cells are grown into colonies on a solid substrate, it leads to accumulation of the recombinant peptides around the colony and allows for easy library screening. The screening assay used in this study was a modified version of the standard agar diffusion method as previously described. Library-transformed E. coli colonies are overlaid with a tester strain and incubated overnight to allow for peptide expression and tester strain growth. Next day, the plates are inspected for the formation of clear growth inhibition zones around E. coli colonies, which is an indication of active AMP production by the host colony.
For the construction of Pln-423 mutant library in E. coli, the expression system that consists of a periplasmic-leaky E. coli strain JE5505 and the expression plasmid pFLAG-CTS was employed for direct screening of peptide activities. It should be noted here that this plasmid contains ompA secretion signal sequence and cleavage of this sequence results in a serine residue at the N-terminal of all mature peptides. A total of 1.0×10^5 colonies, approximately 8-fold coverage of the library, were screened against Listeria innocua 33090 in five separate screening experiments. L. innocua was previously deemed as a suitable indicator for pathogenic L. monocytogenes displaying similar bacteriocin sensitivity, therefore it was used as a surrogate strain throughout this study. The selection process involved two criteria; 1) the size of the each inhibition zone was compared to that of wild-type Pln-423 as a correlation to anti-listerial activity level, 2) when several colonies formed inhibition zones that are very similar in size and character, only a few from each group were selected. The colonies were pooled into three groups based on their activities, giving 43 clones in a higher activity group (H), 81 clones in an equal activity group (E), and 241 clones in a lower activity group (L). Their plasmids were extracted from each activity group and analyzed by both Sanger and 454 high-throughput sequencing to identify peptide sequences.
These clones were also re-tested by colony overlay assay to compare their activities to wild-type Pln-423 based on the size of the inhibition zone around each clone (Figure 2-A). Based on this assay, all ten plantaricin mutants formed larger inhibition zones (10.3±0.5 to 11.4±0.3 mm zone diameter) compared to wild-type Pln-423 (6.2±0.2 mm) against L. innocua 33090. Out of those ten, three clones have a single mutation and […] clones have two mutations and the remaining single clone has three mutations. […] Positions like Ser23, Ser27, His28, and Lys36 were commonly mutated with similar amino acids indicating their potential role on higher peptide activity.
The screening method used in this study was a modified version of the standard colony overlay method as previously described. All the chemicals and growth media supplements were obtained from either Sigma-Aldrich or Fisher Scientific unless otherwise stated. Transformed E. coli JE5505 cells were diluted to 3000–5000 cfu (determined empirically prior to screening by plating serial dilutions of E. coli suspensions of a known absorbance and counting the colonies after incubation) in 25 ml LB soft agar (0.8%, 45°C) per screening plate and poured into 150 mm petri dishes. Once the media was solidified, they were overlaid with 10 ml LB soft agar (45°C) and incubated at 37°C for 24 h for host-colony formation. Next day, these plates were re-overlaid with 10 ml TSB soft agar containing 1 mM IPTG and the indicator strain Listeria innocua ATCC 33090 (diluted to OD600 = 0.03). […]
With “KYYGNGVTCGKHSCSVNWGQAFECRVSHLANFGHGKC* [Pep-2_3415]”, the “activity group by size of inhibition zone compared to wild-type Pln-423” value was “L and H”.
For “KYYGNGVTCGKHSCSVNWGQAFVCSVRHLANFGHGKC* [Pep-2_3643]”, the “activity group by size of inhibition zone compared to wild-type Pln-423” value is listed as “L”.
The value for “KYYGNGVTCGKHSCSVNWGQAFSCSVSHLAKFGHGKC* [Pep-1_81]” was “L”.
Consider “KYYGNGVTCGKHSCSVNWGQAFCCSVSHLANFGHGSC* [Pep-2_11946]”, for which the “activity group by size of inhibition zone compared to wild-type Pln-423” value is “L”.
The value for “KYYGNGVTCGKHSCSVNWGQAFECSVSHIANFGHGKC* [Pep-2_3442]” was “E and H”; that for “KYYGNGVTCGKHSCSVNWGQAFSCSVSHLANFGMGYC* [Pep-2_10827]” was “H”; that for “KYYGNGVTCGKHSCSVNWGQAFSCSVSNLANFGHGRC* [Pep-2_6829]” was “L”.
As for “KYYGNGVTCGKHSCSVNWGQAFSCSVVHIANFGHGKC* [Pep-2_6250]”, the “activity group by size of inhibition zone compared to wild-type Pln-423” value was “H”.
As for “KYYGNGVTCGKHSCSVNWGQAFSCSVSHLAWFGHGKC* [Pep-1_84]”, the “activity group by size of inhibition zone compared to wild-type Pln-423” value is “L”.
For “KYYGNGVTCGKHSCSVNWGQAFSCSVSHLANFGHGWC* [Pep-1_114]”, the “activity group by size of inhibition zone compared to wild-type Pln-423” value is reported as “L”.
For “KYYGNGVTCGKHSCSVNWGQAFSCSVSNLANFGHGKC* [Pep-1_63]” the value was “E”; for “KYYGNGVTCGKHSCSVNWGQAFSCTVEHLANFGHGKC* [Pep-2_6015]”, “E and H”.
For “KYYGNGVTCGKHSCSVNWGQAFSCSVIHLANFGHGSC* [Pep-2_11968]” the value was “H”; for “KYYGNGVTCGKHSCSVNYGQAFACSVSHLANFGHGKC* [Pep-2_257]”, “L”; for “KYYGNGVTCGKHSCSVNWGKAFSCSVSMLANFGHGKC* [Pep-2_1384]”, “L”.
Regarding “KYYGNGVTCGKHSCSVNWGQAFSCSVSVLANFGHNKC* [Pep-2_6933]”, the “activity group by size of inhibition zone compared to wild-type Pln-423” value is “L”.
The value for “KYYGNGVTCGKHSCSVNWGQAFACSVSHLANFGHGFC* [Pep-2_3808]” was “L and E”.
The value for “KYYGNGVTCGKHSCSVNWGQAIVCSVSHLANFGHGKC* [Pep-2_3622]” was “L”; that for “KYYGNGVTCGKHSCSVNWGQAFSCIVENLANFGHGKC* [GROUP L-UM-26]” was “L”; that for “KYYGNGVTCGKHSCSVNWGQAFSCSVSHLANIGHGEC* [Pep-2_11890]” was “L”.
For “KYYGNGVTCGKHSCSVNWGQAFSCSVSHFANFGHGKC* [GROUP E-UM-8]” the value was “E”; for “KYYGNGVTCGKHSCSVNWGQALSCSVTHLANFGHGKC* [GROUP L-UM-8]”, “L”.
For the substance “KYYGNGVTCGKHSCSVNWGQAFSCSVSHLAAFGHGSC* [Pep-2_11993]”, the “activity group by size of inhibition zone compared to wild-type Pln-423” value is listed as “H”.
The value for “KYYGNGVTCGKHSCSVNWGQAFECSVSRLANFGHGKC* [Pep-2_3433]” was “E”.
For “KYYGNGVTCGKHSCSVNWGQAFSCSVSHLANFGHRAC* [Pep-2_11153]” the value was “L”; for “KYYGNGVTCGKHSCSVNWGQAFSCSVSHLANFGHGKC* [GROUP L-UM-27]”, “L”.
For the substance “KYYGNGVTCGKHSCSVNWNQAFYCSVSHLANFGHGKC* [Pep-2_921]”, the “activity group by size of inhibition zone compared to wild-type Pln-423” value is “L”.
Turning to “KYYGNGVTCGKHSCSVNWGQAFSCSVSHLANFGHGKC* [GROUP E-UM-11]”, the “activity group by size of inhibition zone compared to wild-type Pln-423” value was “E”.
Consider “KYYGNGVTCGKHSCSVNWGQAFSCCVSHLANFGHGKC* [GROUP L-UM-1]”, for which the “activity group by size of inhibition zone compared to wild-type Pln-423” value was “L”.
The value for “KYYGNGVTCGKHSCSVNWGQAFECSVSHLANFGMGKC* [Pep-2_10754]” was “E”; that for “KYYGNGVTCGKHSCSVNWGQGFSCSVNHLANFGHGKC* [Pep-2_2457]” was “L”; that for “KYYGNGVTCGKHSCSVNWGQAFSCSVSHLA*FGHGKC* [GROUP L-UM-33]” was “L”.
Turning to “KYYGNGVTCGKHSCSVNWGQAFSCSVSHLANFSHGKC* [GROUP L-UM-18]”, the “activity group by size of inhibition zone compared to wild-type Pln-423” value is “L”.
The value for “KYYGNGVTCGKHSCSVNWGGALSCSVSHLANFGHGKC* [Pep-2_1780]” was “L”.
For “KYYGNGVTCGKHSCSVNWGQAFSCSVDHLANFGHGHC* [Pep-2_11750]” the value was “H”; for “KYYGNGVTCGKHSCSVNWGQAFMCSVEHLANFGHGKC* [Pep-2_6004]”, “L”; for “KYYGNGVTCGKHSCSVNWGQAFSCLVSNLANFGHGKC* [Pep-2_6772]”, “L”.
For “KYYGNGVTCGKHSCSVNWGQAFSCSFSHLANFGHGKC* [Pep-1_52]” the value was “L”.
For the substance “KYYGNGVTCGKHSCSVNWGQGFSCAVSHLANFGHGKC* [Pep-2_2447]”, the “activity group by size of inhibition zone compared to wild-type Pln-423” value was “L”.
Turning to “KYYGNGVTCGKHSCSVNWGQAFSCSVSHMANFGHGKC* [Pep-1_70]”, the “activity group by size of inhibition zone compared to wild-type Pln-423” value is listed as “L”.
The value for “KYYGNGVTCGKHSCSVNWGQALSCAVSHLANFGHGKC* [Pep-2_5026]” was “L”; that for “KYYGNGVTCGKHSCSVNWGQAFSCTVSHLANFGHGKC* [GROUP L-UM-28]” was “L”; that for “KYYGNGVTCGNYSCSVNWGQAFSCSVVHLAEFGHGKC* [GROUP L-UM-10]” was “L”.
The value for “KYYGNGVTCGKHSCSVNWGQAFECSVSHLATFGHGKC* [Pep-2_3453]” was “E”; that for “KYYGNGVTCGKHSCSVNWAQAFSCNVSHLANFGHGKC* [Pep-2_4793]” was “L”.
For “KYYGNGVTCGKHSCSVNWGQAFSCVVSHIANFGHGKC* [Pep-2_4954]” the value was “L”.
Turning to “KNYGNGVTCGKHSCSVNWGQAFSCSVEHLANFGHAKC* [GROUP E-UM-10]”, the “activity group by size of inhibition zone compared to wild-type Pln-423” value was “E”.
On to “KYYGNGVTCGKHSCSVNWGQAFSCSVSHLAWFGHGHC* [Pep-2_9097]”, for which the “activity group by size of inhibition zone compared to wild-type Pln-423” value is on record as “L”.
The value for “KYYGNGVTCGKHSCSVNWGGAFSCSVSHLANFGHGWC* [Pep-2_12251]” was “L”; that for “KYYGNGVTCGKHSCSVNWGQAFVCSVSHLANFGHGTC* [Pep-2_3699]” was “E and H”.
Regarding “KYYGNGVTCGKHSCSVNWGQAFSCAVSALANFGHGKC* [Pep-2_5057]”, the “activity group by size of inhibition zone compared to wild-type Pln-423” value is on record as “L”.
For “KYYGNGVTCGKHSCSVNWGQAFSCSMSHLANFGHGKC* [GROUP L-UM-5]” the value was “L”.
The value for “KYYGNGVTCGKHSCSVNWGQAFSCSVTHIANFGHGKC* [Pep-2_6142]” was “L”; that for “KYYGNGVTCGKHSCSVNWGQACSCSVSHLANFGHGKC* [Pep-1_30]” was “L”; that for “KYYGNGVTCGKHSCSVNWGQAFSCSVTHLANFGLGKC* [Pep-2_6172]” was “E”.
